The text below walks through data of patent US10954219B2, “1,3-benzodioxole derivative” (DAIICHI SANKYO COMPANY, LIMITED, priority 2014, dated 2021).

The target of one experiment is PRC2-EZH1 (WT EZH1) (Homo sapiens, UniProt Q92800). Put plainly: EZH1 methyltransferase inhibitory activity evaluation.
The target in a further experiment is T1, PRC2-EZH2 (WT EZH2) (Homo sapiens, UniProt Q15910).
T1 construct: made in house
The experiment is described as follows: EZH2 methyltransferase inhibitory activity evaluation. Format: biochemical. The following applies: PRC2-EZH2, biotin-H3 peptide, 3H-SAM, 2 hours.

Experiment [1] has as its system Intracellular H3K27me3 in HCT116 cells. Put plainly: Intracellular H3K27me3 inhibitory activity evaluation. Particulars: Homo sapiens, HCT-116, 72 h, 3 days, AlphaLISA, read-out: Test Example 3 H3K27me3 inhibition (HCT116) IC50. It counts as cell-based. In general terms: In Alpha technology, singlet oxygen from a donor bead excites a nearby acceptor bead.

For orientation: IC50 means the midpoint of a concentration-inhibition curve.

Structures are written as SMILES. Counter-ions that a name gives are not always drawn.

T1 sequence (Q15910 whole entry): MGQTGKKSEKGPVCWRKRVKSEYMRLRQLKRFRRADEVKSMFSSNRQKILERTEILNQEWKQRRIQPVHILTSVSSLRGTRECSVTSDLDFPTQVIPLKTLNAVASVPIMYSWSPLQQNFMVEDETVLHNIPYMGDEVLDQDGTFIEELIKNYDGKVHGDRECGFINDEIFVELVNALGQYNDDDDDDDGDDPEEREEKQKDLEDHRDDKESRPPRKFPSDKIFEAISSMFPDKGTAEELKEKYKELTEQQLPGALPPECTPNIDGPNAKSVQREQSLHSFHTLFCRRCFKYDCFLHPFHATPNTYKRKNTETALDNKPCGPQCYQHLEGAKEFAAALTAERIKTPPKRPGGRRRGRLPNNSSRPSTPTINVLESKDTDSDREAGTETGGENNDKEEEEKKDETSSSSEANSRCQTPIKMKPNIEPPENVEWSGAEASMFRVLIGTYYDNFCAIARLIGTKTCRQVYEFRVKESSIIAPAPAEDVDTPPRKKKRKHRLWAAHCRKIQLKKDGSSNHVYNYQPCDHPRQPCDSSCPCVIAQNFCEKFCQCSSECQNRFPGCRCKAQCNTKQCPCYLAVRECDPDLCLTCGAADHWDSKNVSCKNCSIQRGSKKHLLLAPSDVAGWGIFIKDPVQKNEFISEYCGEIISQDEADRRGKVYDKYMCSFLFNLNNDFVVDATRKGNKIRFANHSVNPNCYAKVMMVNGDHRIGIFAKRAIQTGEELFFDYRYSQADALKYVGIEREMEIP
T1 sequence (O75530 whole entry partner): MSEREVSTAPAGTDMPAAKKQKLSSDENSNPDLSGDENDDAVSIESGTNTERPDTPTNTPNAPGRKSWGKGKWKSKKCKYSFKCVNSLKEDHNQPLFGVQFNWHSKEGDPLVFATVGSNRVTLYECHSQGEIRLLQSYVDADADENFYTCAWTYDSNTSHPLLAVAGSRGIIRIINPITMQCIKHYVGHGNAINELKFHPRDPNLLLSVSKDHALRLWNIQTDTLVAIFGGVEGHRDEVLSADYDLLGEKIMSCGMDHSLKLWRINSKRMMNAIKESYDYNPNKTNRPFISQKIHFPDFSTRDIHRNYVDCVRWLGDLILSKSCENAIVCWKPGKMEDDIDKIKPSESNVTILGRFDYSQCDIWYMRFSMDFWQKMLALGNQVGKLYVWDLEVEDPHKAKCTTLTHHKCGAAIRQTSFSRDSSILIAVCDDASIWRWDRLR
T1 sequence (Q15022 whole entry partner): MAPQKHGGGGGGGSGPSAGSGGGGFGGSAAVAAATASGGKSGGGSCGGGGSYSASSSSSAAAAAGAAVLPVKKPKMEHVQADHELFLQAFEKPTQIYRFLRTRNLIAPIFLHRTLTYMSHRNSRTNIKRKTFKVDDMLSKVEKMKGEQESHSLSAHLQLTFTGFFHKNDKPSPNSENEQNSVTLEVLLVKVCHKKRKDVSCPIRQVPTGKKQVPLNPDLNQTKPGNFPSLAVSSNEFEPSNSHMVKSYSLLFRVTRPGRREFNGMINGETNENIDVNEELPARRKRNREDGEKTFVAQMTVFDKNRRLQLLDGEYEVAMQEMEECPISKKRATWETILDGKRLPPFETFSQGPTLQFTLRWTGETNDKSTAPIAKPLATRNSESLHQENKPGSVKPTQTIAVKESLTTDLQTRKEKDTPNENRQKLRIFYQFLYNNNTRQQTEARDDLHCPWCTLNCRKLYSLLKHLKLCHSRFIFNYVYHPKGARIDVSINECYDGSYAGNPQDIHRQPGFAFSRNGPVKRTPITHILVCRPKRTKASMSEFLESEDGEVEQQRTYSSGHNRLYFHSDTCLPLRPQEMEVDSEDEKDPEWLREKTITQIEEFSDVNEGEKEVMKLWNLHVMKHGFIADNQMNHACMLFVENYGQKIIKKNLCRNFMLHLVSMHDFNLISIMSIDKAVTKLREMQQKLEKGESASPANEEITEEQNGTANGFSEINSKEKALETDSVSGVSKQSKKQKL
PRC2-EZH1 (WT EZH1), sequence (Q92800 whole entry): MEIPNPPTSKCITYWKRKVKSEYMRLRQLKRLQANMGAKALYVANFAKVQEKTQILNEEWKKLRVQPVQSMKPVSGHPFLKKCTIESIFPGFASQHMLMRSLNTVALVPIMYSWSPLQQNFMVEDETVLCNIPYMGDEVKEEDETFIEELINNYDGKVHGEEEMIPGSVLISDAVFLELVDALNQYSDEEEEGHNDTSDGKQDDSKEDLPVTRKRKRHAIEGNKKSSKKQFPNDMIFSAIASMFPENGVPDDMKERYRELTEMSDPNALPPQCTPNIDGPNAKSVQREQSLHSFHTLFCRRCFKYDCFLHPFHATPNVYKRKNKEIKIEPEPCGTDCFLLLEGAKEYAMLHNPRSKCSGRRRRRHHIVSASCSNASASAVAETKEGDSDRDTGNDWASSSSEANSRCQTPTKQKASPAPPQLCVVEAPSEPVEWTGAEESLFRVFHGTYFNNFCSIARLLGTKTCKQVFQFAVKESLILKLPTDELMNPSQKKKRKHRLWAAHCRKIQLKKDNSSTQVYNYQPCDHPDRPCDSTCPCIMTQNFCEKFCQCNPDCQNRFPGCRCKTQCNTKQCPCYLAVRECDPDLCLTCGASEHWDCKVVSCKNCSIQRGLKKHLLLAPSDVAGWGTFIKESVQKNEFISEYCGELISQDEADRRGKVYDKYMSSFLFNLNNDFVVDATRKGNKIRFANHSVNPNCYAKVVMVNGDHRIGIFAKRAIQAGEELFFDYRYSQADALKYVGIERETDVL
PRC2-EZH1 (WT EZH1), sequence (O75530 whole entry partner): as the sequence (O75530 whole entry partner) above
PRC2-EZH1 (WT EZH1), sequence (Q15022 whole entry partner): as the sequence (Q15022 whole entry partner) above
PRC2-EZH1 (WT EZH1), sequence (Q09028 whole entry partner): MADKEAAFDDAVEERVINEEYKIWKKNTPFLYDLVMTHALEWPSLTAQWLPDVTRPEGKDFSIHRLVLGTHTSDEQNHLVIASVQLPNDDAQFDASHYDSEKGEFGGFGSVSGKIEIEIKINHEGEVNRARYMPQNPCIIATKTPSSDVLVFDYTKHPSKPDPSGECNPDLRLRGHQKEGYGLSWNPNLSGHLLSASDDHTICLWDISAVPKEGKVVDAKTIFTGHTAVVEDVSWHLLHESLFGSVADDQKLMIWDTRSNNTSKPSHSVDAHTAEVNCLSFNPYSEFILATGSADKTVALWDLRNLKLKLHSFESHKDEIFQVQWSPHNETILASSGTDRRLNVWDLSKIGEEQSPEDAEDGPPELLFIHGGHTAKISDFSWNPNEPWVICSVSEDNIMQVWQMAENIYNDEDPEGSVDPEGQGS
PRC2-EZH1 (WT EZH1), sequence (Q6ZN18 whole entry partner): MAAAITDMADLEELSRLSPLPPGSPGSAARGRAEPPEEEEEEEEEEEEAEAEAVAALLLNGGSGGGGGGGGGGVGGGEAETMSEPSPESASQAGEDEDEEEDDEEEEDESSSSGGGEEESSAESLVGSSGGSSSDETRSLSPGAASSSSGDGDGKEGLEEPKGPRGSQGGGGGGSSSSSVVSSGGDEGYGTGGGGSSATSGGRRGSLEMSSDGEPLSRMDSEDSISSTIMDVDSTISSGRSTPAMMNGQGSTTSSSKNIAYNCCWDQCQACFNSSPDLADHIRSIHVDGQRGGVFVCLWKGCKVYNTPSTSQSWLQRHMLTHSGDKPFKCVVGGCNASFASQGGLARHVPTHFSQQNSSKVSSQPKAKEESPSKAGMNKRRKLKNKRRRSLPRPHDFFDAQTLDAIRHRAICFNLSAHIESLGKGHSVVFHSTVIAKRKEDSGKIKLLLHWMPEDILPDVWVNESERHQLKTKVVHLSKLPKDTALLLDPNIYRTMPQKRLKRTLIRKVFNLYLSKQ
Description for PRC2-EZH1 (WT EZH1): EZH1 Methyltransferase Inhibitory Activity Evaluation
(§1) Then, the residual radioactivity was measured using TopCount NXT HTS (PerkinElmer, Inc., model C384V01).
Description for PRC2-EZH2 (WT EZH2): EZH2 Methyltransferase Inhibitory Activity Evaluation
as §1

Consider `Cc1cc(C)c(CNC(=O)c2cc(C3CC3)c3c(c2C)OC(C)([C@H]2CC[C@H](N(C)C)CC2)O3)c(=O)[nH]1` (relative stereo) [Example 68, 7-Cyclopropyl-2-[trans-4-(dimethylamino)cyclohexyl]-N-[(4,6-dimethyl-2-oxo-1,2-dihydropyridin-3-yl)methyl]-2,4-dimethyl-1,3-benzodioxole-5-carboxamide], for which the half-inhibitory concentration (IC50) against PRC2-EZH1 (WT EZH1) turned out to be 29 nM; on PRC2-EZH2 (WT EZH2) it was 18 nM; in experiment [1], 1.6 nM.

Take `Cc1cc(C)c(CNC(=O)c2cc(-c3ccnc(N4CCN(C)CC4)c3)c3c(c2C)OC(C)([C@H]2CC[C@H](N(C)C)CC2)O3)c(=O)[nH]1` (relative stereo) [Example 69, 2-[trans-4-(Dimethylamino)cyclohexyl]-N-[(4,6-dimethyl-2-oxo-1,2-dihydropyridin-3-yl)methyl]-2,4-dimethyl-7-[2-(4-methylpiperazin-1-yl)-4-pyridyl]-1,3-benzodioxole-5-carboxamide]: the IC50 against PRC2-EZH1 (WT EZH1) came out at 32 nM; on PRC2-EZH2 (WT EZH2), 24 nM; in experiment [1] it was 29 nM.

With `Cc1cc(C)c(CNC(=O)c2cc(-c3cncs3)c3c(c2C)OC(C)([C@H]2CC[C@H](N(C)C)CC2)O3)c(=O)[nH]1` (relative stereo) [Example 70, 2-[trans-4-(Dimethylamino)cyclohexyl]-N-[(4,6-dimethyl-2-oxo-1,2-dihydropyridin-3-yl)methyl]-2,4-dimethyl-7-thiazol-5-yl-1,3-benzodioxole-5-carboxamide hydrochloride], the IC50 on PRC2-EZH1 (WT EZH1) came to 38 nM; against PRC2-EZH2 (WT EZH2), 26 nM; in experiment [1] it was 4.3 nM.

`Cc1cc(C)c(CNC(=O)c2cc(C3=CCN(C)CC3)c3c(c2C)OC(C)([C@H]2CC[C@H](N(C)C)CC2)O3)c(=O)[nH]1` (relative stereo) [Example 71, 2-[trans-4-(Dimethylamino)cyclohexyl]-N-[(4,6-dimethyl-2-oxo-1,2-dihydropyridin-3-yl)methyl]-2,4-dimethyl-7-(1-methyl-3,6-dihydro-2H-pyridin-4-yl)-1,3-benzodioxole-5-carboxamide]: the IC50 against PRC2-EZH1 (WT EZH1) was found to be 43 nM; on PRC2-EZH2 (WT EZH2), 19 nM; in experiment [1] it was 99 nM.

`CC(=O)c1cc(C(=O)NCc2c(C)cc(C)[nH]c2=O)c(C)c2c1OC(C)([C@H]1CC[C@H](N(C)C)CC1)O2` (relative stereo) [Example 72, 7-Acetyl-2-[trans-4-(dimethylamino)cyclohexyl]-N-[(4,6-dimethyl-2-oxo-1,2-dihydropyridin-3-yl)methyl]-2,4-dimethyl-1,3-benzodioxole-5-carboxamide hydrochloride]: the IC50 on PRC2-EZH1 (WT EZH1) turned out to be 76 nM; at PRC2-EZH2 (WT EZH2), 17 nM; in experiment [1] it was 13 nM.

Regarding `CCc1cc(C)[nH]c(=O)c1CNC(=O)c1cc(-c2ccc(N3CCN(CC)CC3)nc2)c2c(c1C)OC(C)([C@H]1CC[C@H](N(C)C)CC1)O2` (relative stereo) [Example 73, 2-[trans-4-(Dimethylamino)cyclohexyl]-N-[(4-ethyl-6-methyl-2-oxo-1,2-dihydropyridin-3-yl)methyl]-7-[6-(4-ethylpiperazin-1-yl)-3-pyridyl]-2,4-dimethyl-1,3-benzodioxole-5-carboxamide hydrochloride], the figures for the half-inhibitory concentration (IC50) (on PRC2-EZH1 (WT EZH1); at PRC2-EZH2 (WT EZH2); in experiment [1]) were 12 nM, 22 nM and 6.1 nM, respectively.

Regarding `CCCc1cc(C)[nH]c(=O)c1CNC(=O)c1cc(-c2ccc(N3CCN(CC)CC3)nc2)c2c(c1C)OC(C)([C@H]1CC[C@H](N(C)C)CC1)O2` (relative stereo) [Example 74, 2-[trans-4-(Dimethylamino)cyclohexyl]-7-[6-(4-ethylpiperazin-1-yl)-3-pyridyl]-2,4-dimethyl-N-[(6-methyl-2-oxo-4-propyl-1,2-dihydropyridin-3-yl)methyl]-1,3-benzodioxole-5-carboxamide], the 50% inhibitory concentration (IC50) against PRC2-EZH1 (WT EZH1) amounted to 13 nM; against PRC2-EZH2 (WT EZH2), 29 nM; in experiment [1], 23 nM.

`CCc1cc(C)[nH]c(=O)c1CNC(=O)c1cc(-c2cnn(C)c2)c2c(c1C)OC(C)([C@H]1CC[C@H](N(C)C)CC1)O2` (relative stereo) [Example 75, 2-[trans-4-(Dimethylamino)cyclohexyl]-N-[(4-ethyl-6-methyl-2-oxo-1,2-dihydropyridin-3-yl)methyl]-2,4-dimethyl-7-(1-methylpyrazol-4-yl)-1,3-benzodioxole-5-carboxamide hydrochloride]: the IC50 at PRC2-EZH1 (WT EZH1) was 21 nM; against PRC2-EZH2 (WT EZH2), 26 nM; in experiment [1], 11 nM.

As to `CCc1cc(C(=O)NCc2c(C)cc(C)[nH]c2=O)c(C)c2c1OC(C)([C@H]1CC[C@H](N(C)C)CC1)O2` (relative stereo) [Example 76, 2-[trans-4-(Dimethylamino)cyclohexyl]-N-[(4,6-dimethyl-2-oxo-1,2-dihydropyridin-3-yl)methyl]-7-ethyl-2,4-dimethyl-1,3-benzodioxole-5-carboxamide], the values for the IC50 (against PRC2-EZH1 (WT EZH1); on PRC2-EZH2 (WT EZH2); in experiment [1]) were 20 nM, 12 nM and 0.88 nM, respectively.

In the case of `Cc1cc(C)c(CNC(=O)c2cc(C)c3c(c2C)O[C@@](C)([C@H]2CC[C@H](N(C)C)CC2)O3)c(=O)[nH]1` (single isomer, unassigned) [Example 48], the IC50 against PRC2-EZH1 (WT EZH1) stood at 8.9 nM; against PRC2-EZH2 (WT EZH2) it was 8 nM; in experiment [1], 0.48 nM.

Regarding `Cc1cc(C)c(CNC(=O)c2cc(Br)c3c(c2C)OC(C)(C2CCOC2)O3)c(=O)[nH]1` (stereo not drawn) [Example 1, 7-Bromo-N-[(4,6-dimethyl-2-oxo-1,2-dihydropyridin-3-yl)methyl]-2,4-dimethyl-2-(tetrahydrofuran-3-yl)-1,3-benzodioxole-5-carboxamide], the IC50 turned out to be 140 nM against PRC2-EZH1 (WT EZH1), 24 nM at PRC2-EZH2 (WT EZH2) and 29 nM in experiment [1].

Regarding `Cc1cc(C)c(CNC(=O)c2cc(Br)c3c(c2C)OC(C)(C24CC(N(C)C)(C2)C4)O3)c(=O)[nH]1` (stereo not drawn) [Example 3, 7-Bromo-2-[3-(dimethylamino)-1-bicyclo[1.1.1]pentanyl]-N-[(4,6-dimethyl-2-oxo-1,2-dihydropyridin-3-yl)methyl]-2,4-dimethyl-1,3-benzodioxole-5-carboxamide], the IC50 on PRC2-EZH1 (WT EZH1) came to 660 nM; on PRC2-EZH2 (WT EZH2) it was 30 nM; in experiment [1], 26 nM.

As to `Cc1cc(C)c(CNC(=O)c2cc(Br)c3c(c2C)OC(C)(C2CC4(CC(N(C)C)C4)C2)O3)c(=O)[nH]1` (stereo not drawn) [Example 4, 7-Bromo-2-[2-(dimethylamino)spiro[3.3]heptan-6-yl]-N-[(4,6-dimethyl-2-oxo-1,2-dihydropyridin-3-yl)methyl]-2,4-dimethyl-1,3-benzodioxole-5-carboxamide], the IC50 at PRC2-EZH1 (WT EZH1) stood at 130 nM; at PRC2-EZH2 (WT EZH2) it was 25 nM; in experiment [1] it was 8.3 nM.

`CCN1CC2(CC(C3(C)Oc4c(Br)cc(C(=O)NCc5c(C)cc(C)[nH]c5=O)c(C)c4O3)C2)C1` (stereo not drawn) [Example 5, 7-Bromo-N-[(4,6-dimethyl-2-oxo-1,2-dihydropyridin-3-yl)methyl]-2-(2-ethyl-2-azaspiro[3.3]heptan-6-yl)-2,4-dimethyl-1,3-benzodioxole-5-carboxamide]: the IC50 is 250 nM against PRC2-EZH1 (WT EZH1), 15 nM against PRC2-EZH2 (WT EZH2) and 51 nM in experiment [1].

Take `Cc1cc(C)c(CNC(=O)c2cc(Br)c3c(c2C)OC(C)(C2CCN(C)C2)O3)c(=O)[nH]1` (stereo not drawn) [Example 6, 7-Bromo-N-[(4,6-dimethyl-2-oxo-1,2-dihydropyridin-3-yl)methyl]-2,4-dimethyl-2-(1-methylpyrrolidin-3-yl)-1,3-benzodioxole-5-carboxamide]: the results for the IC50 (on PRC2-EZH1 (WT EZH1); against PRC2-EZH2 (WT EZH2); in experiment [1]) were 510 nM, 39 nM and 45 nM, respectively.

As to `CCN1CCC([C@@]2(C)Oc3c(Br)cc(C(=O)NCc4c(C)cc(C)[nH]c4=O)c(C)c3O2)CC1` [Example 7, (2R)-7-Bromo-N-[(4,6-dimethyl-2-oxo-1,2-dihydropyridin-3-yl)methyl]-2-(1-ethyl-4-piperidyl)-2,4-dimethyl-1,3-benzodioxole-5-carboxamide], the IC50 on PRC2-EZH1 (WT EZH1) turned out to be 38 nM; against PRC2-EZH2 (WT EZH2) it was 3.6 nM; in experiment [1] it was 8.4 nM.

For the compound `Cc1cc(C)c(CNC(=O)c2cc(Br)c3c(c2C)O[C@@](C)(C2CCN(C)CC2)O3)c(=O)[nH]1` [Example 8, (2R)-7-Bromo-N-[(4,6-dimethyl-2-oxo-1,2-dihydropyridin-3-yl)methyl]-2,4-dimethyl-2-(1-methyl-4-piperidyl)-1,3-benzodioxole-5-carboxamide], the IC50 at PRC2-EZH1 (WT EZH1) is 97 nM; on PRC2-EZH2 (WT EZH2) it was 16 nM; in experiment [1], 6 nM.

In the case of `COCCN1CCC([C@@]2(C)Oc3c(Br)cc(C(=O)NCc4c(C)cc(C)[nH]c4=O)c(C)c3O2)CC1` [Example 10, (2R)-7-Bromo-N-[(4,6-dimethyl-2-oxo-1H-pyridin-3-yl)methyl]-2-[l-(2-methoxyethyl)-4-piperidyl]-2,4-dimethyl-1,3-benzodioxole-5-carboxamide], the IC50 stood at 130 nM on PRC2-EZH1 (WT EZH1), 11 nM at PRC2-EZH2 (WT EZH2) and 18 nM in experiment [1].

Regarding `CCCc1cc(C)[nH]c(=O)c1CNC(=O)c1cc(Br)c2c(c1C)O[C@@](C)(C1CCN(CC)CC1)O2` [Example 12, (2R)-7-Bromo-2-(1-ethyl-4-piperidyl)-2,4-dimethyl-N-[(6-methyl-2-oxo-4-propyl-1,2-dihydropyridin-3-yl)methyl]-1,3-benzodioxole-5-carboxamide], the IC50 on PRC2-EZH1 (WT EZH1) stood at 200 nM; on PRC2-EZH2 (WT EZH2), 28 nM; in experiment [1], 140 nM.

`Cc1cc(C)c(CNC(=O)c2cc(Br)c3c(c2C)OC(C)(CC2CCN(C)CC2)O3)c(=O)[nH]1` (stereo not drawn) [Example 25, 7-Bromo-N-[(4,6-dimethyl-2-oxo-1,2-dihydropyridin-3-yl)methyl]-2,4-dimethyl-2-[(1-methyl-4-piperidyl)methyl]-1,3-benzodioxole-5-carboxamide]: the IC50 worked out at 110 nM against PRC2-EZH1 (WT EZH1), 12 nM at PRC2-EZH2 (WT EZH2) and 45 nM in experiment [1].
